Patent US20040043403A1, “Process for determining the biological activity of epidermal growth factor receptor tyrosine kinase inhibitors” (priority 2000, published 2004)

Key:
A431 cells [1] = experiment: Real time RT-PCR gene expression in A431 cells; format: cell-based, human
Method: 20 million tissue culture cells (about 80% confluent) or 200 million WBCs are incubated for 2 or 24 h in culture medium containing 3 μM of an EGFR tyrosine kinase inhibitor or 0.03% DMSO. Total RNA from cell pellet is isolated using the RNeasy kit (Qiagen). mRNA is isolated using the oligotex mRNA purification kit (Qiagen). The quality of the obtained mRNA is tested by real time RT-PCR using beta-Actin primers (PE Applied Biosystems) with an amplicon size of 300 base pairs (bp). The total RNA is used as a reference to calculate the amount of mRNA-enrichment in the oligotex purified samples. 2 million A431 cells at about 80% confluency are treated with an EGFR tyrosine kinase inhibitor (100, 300 or 3000 nM) or 0.03% DMSO and incubated for 4, 8, 16 or 24 h. Total RNA is isolated using the RNeasy kit. The primers and probes are designed from mRNA sequences within the coding region or in the 3′ untranslated region (Table 2). For real time RT-PCR, RNA concentrations between 1 and 50 ng/reaction are used to obtain signals between 15-35 cycles. For each RNA preparation RT-PCR reactions are performed with and without reverse transcriptase to check for genomic DNA contamination. In all RNA samples tested, genomic DNA contamination is less than 1%. To normalize for variability in the initial concentration and quality of the total RNA, Glyceraldehyde-3-phosphate dehydrogenase (GAPDH) is used as an endogenous reference in all quantification experiments. For RT-PCR a one step, two-enzyme system is chosen. The TaqMan PCR Core Reagent Kit (PE #N808-0228) plus the reverse transcriptase MuLV (PE Biosystems # N808-0018) and RNase inhibitor (Roche Diagnostics # 799 025) are mixed as described in the manufacturers protocol. Triplicate measurements are done for target and for reference reactions. […] RT-PCR reactions are done with RNA concentrations of 2.5, 5, 10, 20, 40 and 80 ng per reaction. The absolute value of the slope of (log input amount) vs. ΔCT should be <0.1. The ΔCT value is determined by subtracting the average reference CT values from the average target CT values of the three measurements. Relative quantification is performed in triplicates, reference and target, using the RT-PCR protocol described above.

A431 cells [2] = experiment: Western blot of clusterin induction in A431 cells; format: cell-based, human
Method: An EGFR tyrosine kinase inhibitor is dissolved in DMSO to obtain a 10 mM stock solution. The stock solution is further diluted in culture medium to final concentrations of 10 nM to 3 μM. 3.5 million cells/100 mm dish/12 ml culture medium are incubated for 24 h in 5% CO2 at 37° C. The medium is replaced with medium containing the EGFR tyrosine kinase inhibitor or DMSO. Cells are incubated for 4 to 32 h. The frozen pellets are lysed in 500 μl of lysis buffer (50 mM Tris-HCl pH 7.5, 1% Sodium Dodecyl Sulfate (SDS)). To shear genomic DNA, the cell lysates are processed in a FastPrep instrument for 20 sec at a speed rating of 4, using the green […] tubes (Bio101#6040-6010). Protein concentrations are determined according to the PIERCE-method (BCA Protein Assay, Reagent A and B). Protein concentration of lysates is adjusted to 1 μg/μl with lysis buffer. 4 parts of cell lysates are mixed with 1 part of 5 fold concentrated Laemmli buffer, the lysates are stored at -20° C. 40 μl of cell lysate is heated for 3 min to 95° C. and directly loaded on to 10% or 15% SDS-PAGE gels. The gels are run at 130 V for 90 min under standard conditions. The separated proteins are semi-dry blotted on to a PVDF membrane (Immobilon-P, Millipore #IPVH 202 00) for 70 min with 45 mA per blot. Immediately after the transfer the blots are incubated in Blotto A (5% skim milk powder in Tris Buffered Saline (TBS)/0.05% Tween-20) for 1 h at room temperature on a rotating platform. The blots are then washed three times in TBS/0.05% Tween-20. The blots are incubated […] with 0.2 μg/ml of e.g. goat anti-human clusterin (C-18) antibody (Santa Cruz, sc-6419) in Blotto A for 1.5 h at room temperature on a rotating platform. The control blots are incubated with 0.2 μg/ml of mouse anti-human-actin (C-2) antibody (Santa Cruz, sc-8432). The blots are washed three times with TBS/0.05% Tween-20. […]

[3] = A431, 3 μM, 24 h, relative to DMSO-treated NCI-H520 calibrator
[4] = A431 cells, 3 μM, 24 hours, Experiment 1
[5] = A431 cells, 3 μM, 24 hours, Experiment 2
[6] = A431 cells, 3 μM, 24 hours, Experiment 3

C[C@@H](Nc1ncnc2[nH]c(-c3ccc(O)cc3)cc12)c1ccccc1 [COMPOUND A, (R)-6-(4-hydroxy-phenyl)-4-[(1-phenyl-ethyl)-amino]-7H-pyrrolo[2,3-d]pyrimidine]
Relative Clusterin expression (A431 cells [1]; [3]): 247.28 n-fold | Relative TRAIL expression (A431 cells [1]; [3]): 99.50 n-fold | Relative VAC-beta expression (A431 cells [1]; [3]): 57.20 n-fold | Induction of clusterin gene expression, dose and time dependency (FIGS. 1A and 1B) (A431 cells [1]; A431 cells, 100 nM, 300 nM and 3 μM, 4 to 24 h, real time RT-PCR): shows dose and time dependency | Gene induction, Real time RT-PCR Experiment 1: Acute phase serum amyloid A protein (A431 cells [1]; [4]): 6.6 | Gene induction, Real time RT-PCR Experiment 1: Cathepsin H (A431 cells [1]; [4]): 5.2 | Gene induction, Real time RT-PCR Experiment 1: Caveolin (A431 cells [1]; [4]): 2.8 ± 0.2 | Gene induction, Real time RT-PCR Experiment 1: Complement component 3 (C3) (A431 cells [1]; [4]): 5.6 | Gene induction, Real time RT-PCR Experiment 1: Complement cytolysis inibitor (Clusterin) (A431 cells [1]; [4]): 11.2 ± 2.0 | Gene induction, Real time RT-PCR Experiment 1: DNA binding protein inhibitor ID-3 (A431 cells [1]; [4]): 4.4 | Gene induction, Real time RT-PCR Experiment 1: Extracellular protein S1-5 (A431 cells [1]; [4]): 3.2 ± 1.7 | Gene induction, Real time RT-PCR Experiment 1: TGF-beta induced gene (A431 cells [1]; [4]): 5.2 | Gene induction, Real time RT-PCR Experiment 1: TRAIL (A431 cells [1]; [4]): 7.8 ± 1.6 | Gene induction, Real time RT-PCR Experiment 1: VAC-beta (annexin VIII) (A431 cells [1]; [4]): 2.8 ± 1.5 | Gene induction, Real time RT-PCR Experiment 2: Acute phase serum amyloid A protein (A431 cells [1]; [5]): 2.5 ± 1.1 | Gene induction, Real time RT-PCR Experiment 2: Cathepsin H (A431 cells [1]; [5]): 2.6 ± 0.9 | Gene induction, Real time RT-PCR Experiment 2: Caveolin (A431 cells [1]; [5]): 1.5 ± 0.4 | Gene induction, Real time RT-PCR Experiment 2: Complement component 3 (C3) (A431 cells [1]; [5]): 2.5 ± 0.4 | Gene induction, Real time RT-PCR Experiment 2: Complement cytolysis inibitor (Clusterin) (A431 cells [1]; [5]): 5.2 ± 1.4 | Gene induction, Real time RT-PCR Experiment 2: DNA binding protein inhibitor ID-3 (A431 cells [1]; [5]): 2.2 ± 0.1 | Gene induction, Real time RT-PCR Experiment 2: Extracellular protein S1-5 (A431 cells [1]; [5]): 1.7 ± 0.2 | Gene induction, Real time RT-PCR Experiment 2: TRAIL (A431 cells [1]; [5]): 4.1 ± 1.4 | Gene induction, Real time RT-PCR Experiment 2: VAC-beta (annexin VIII) (A431 cells [1]; [5]): 2.4 ± 0.9 | Gene induction, Real time RT-PCR Experiment 3: Acute phase serum amyloid A protein (A431 cells [1]; [6]): 3.3 | Gene induction, Real time RT-PCR Experiment 3: Cathepsin H (A431 cells [1]; [6]): 2.1 | Gene induction, Real time RT-PCR Experiment 3: Caveolin (A431 cells [1]; [6]): 2.6 | Gene induction, Real time RT-PCR Experiment 3: Complement component 3 (C3) (A431 cells [1]; [6]): 2.0 | Gene induction, Real time RT-PCR Experiment 3: Complement cytolysis inibitor (Clusterin) (A431 cells [1]; [6]): 6.2 | Gene induction, Real time RT-PCR Experiment 3: DNA binding protein inhibitor ID-3 (A431 cells [1]; [6]): 2.4 | Gene induction, Real time RT-PCR Experiment 3: Extracellular protein S1-5 (A431 cells [1]; [6]): 1.2 ± 0.5 | Gene induction, Real time RT-PCR Experiment 3: TRAIL (A431 cells [1]; [6]): 5.7 ± 0.03 | Gene induction, Real time RT-PCR Experiment 3: VAC-beta (annexin VIII) (A431 cells [1]; [6]): 2.5 ± 0.8 | Clusterin induction, Western blot (FIG. 4) (A431 cells [2]; A431 cells (high levels of EGFR), 300 nM, 24 h, vs 0.03% DMSO): strong clusterin expression signals | Concentration at which the 43 kDa clusterin signals reach a maximum (FIG. 2) (A431 cells [2]; A431 cells, 10 nM to 1 μM, 24 h, signals increase with concentration): 300 nM | Time course of clusterin protein induction (FIG. 3) (A431 cells [2]; A431 cells, 300 nM, 4, 8, 16, 24 and 32 h): continuous increase of clusterin signal from 16 h to 32 h
